Data from ChEMBL document CHEMBL1201862, “PubChem BioAssay data set” (2004).
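These data come from cells grown in 96-well plates and exposed to compound for 48 hours at five concentrations. GI50 = concentration required for 50% inhibition of growth.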 Activity calls are given as the source filed them. Cut-off read from the data, not from the text of the source: active = GI50 up to about 1.1 µM and inactive = higher. Where a SMILES comes first, the peptide text is derived from it.

What was measured:
Assay in all cases: NCI anticancer screen, dose series, 48 h
[1] = system: NCI-H460
[2] = system: Malme-3M
[3] = system: UACC-62
[4] = system: SW-620
[5] = system: CAKI-1
[6] = system: RXF 631
[7] = system: MOLT-4
[8] = system: OVCAR-3
[9] = system: M19-MEL
[10] = system: KM12
[11] = system: SK-MEL-5
[12] = system: SK-OV-3
[13] = system: NCI-H226
[14] = system: RXF 393
[15] = system: TK-10
[16] = system: UACC-257
[17] = system: HOP-62
[18] = system: HCT-15
[19] = system: OVCAR-8
[20] = system: KM-20L2
[21] = system: 786-0
[22] = system: SF-539
[23] = system: UO-31
[24] = system: SN12C
[25] = system: HCT-116
[26] = system: IGROV-1
[27] = system: RPMI-8226
[28] = system: LXFL 529
[29] = system: EKVX
[30] = system: COLO 205
[31] = system: HOP-92
[32] = system: HT-29
[33] = system: HOP-18
[34] = system: LOX IMVI
[35] = system: ACHN
[36] = system: U-251
[37] = system: OVCAR-4
[38] = system: DLD-1
[39] = system: SK-MEL-28
[40] = system: SR
[41] = system: SF-295
[42] = system: A498
[43] = system: OVCAR-5
[44] = system: M14
[45] = system: SF-268
[46] = system: NCI-H23
[47] = system: DMS-114
[48] = system: SNB-19
[49] = system: A549
[50] = system: SNB-75
[51] = system: HCC 2998
[52] = system: NCI-H522
[53] = system: CCRF-CEM
[54] = system: SK-MEL-2
[55] = system: DMS-273
[56] = system: XF498
[57] = system: K562
[58] = system: SNB-78
[59] = system: HL-60

Structure (SMILES): CCC(C)C1NC(=O)C2CCCN2C(=O)CNC(=O)C(C)NC(=O)C(Cc2ccccc2)NC(=O)C(C(C)C)NC1=O (stereo not drawn) (cyclo(GPIVFA); configuration not given here)
- GI50 [1]: > 100 µM (inactive)
- GI50 [2]: > 100 µM (inactive)
- GI50 [3]: > 100 µM (inactive)
- GI50 [4]: > 100 µM (inactive)
- GI50 [5]: > 100 µM (inactive)
- GI50 [6]: > 100 µM (inactive)
- GI50 [7]: > 100 µM (inactive)
- GI50 [8]: > 100 µM (inactive)
- GI50 [9]: > 100 µM (inactive)
- GI50 [10]: 61.2 µM (inactive)
- GI50 [11]: > 100 µM (inactive)
- GI50 [12]: > 100 µM (inactive)
- GI50 [13]: > 100 µM (inactive)
- GI50 [14]: > 100 µM (inactive)
- GI50 [15]: > 100 µM (inactive)
- GI50 [16]: > 100 µM (inactive)
- GI50 [17]: > 100 µM (inactive)
- GI50 [18]: > 100 µM
- GI50 [19]: > 100 µM (inactive)
- GI50 [20]: > 100 µM (inactive)
- GI50 [21]: > 100 µM (inactive)
- GI50 [22]: > 100 µM (inactive)
- GI50 [23]: > 100 µM (inactive)
- GI50 [24]: > 100 µM (inactive)
- GI50 [25]: > 100 µM (inactive)
- GI50 [26]: > 100 µM (inactive)
- GI50 [27]: > 100 µM (inactive)
- GI50 [28]: > 100 µM (inactive)
- GI50 [29]: > 100 µM (inactive)
- GI50 [30]: > 100 µM (inactive)
- GI50 [31]: > 100 µM (inactive)
- GI50 [32]: > 100 µM (inactive)
- GI50 [33]: > 100 µM (inactive)
- GI50 [34]: > 100 µM (inactive)
- GI50 [35]: > 100 µM (inactive)
- GI50 [36]: > 100 µM (inactive)
- GI50 [37]: > 100 µM (inactive)
- GI50 [38]: > 100 µM (inactive)
- GI50 [39]: > 100 µM (inactive)
- GI50 [40]: > 100 µM (inactive)
- GI50 [41]: > 100 µM (inactive)
- GI50 [42]: > 100 µM (inactive)
- GI50 [43]: > 100 µM (inactive)
- GI50 [44]: > 100 µM (inactive)
- GI50 [45]: > 100 µM (inactive)
- GI50 [46]: > 100 µM (inactive)
- GI50 [47]: > 100 µM (inactive)
- GI50 [48]: > 100 µM (inactive)
- GI50 [49]: > 100 µM (inactive)
- GI50 [50]: > 100 µM (inactive)
- GI50 [51]: > 100 µM (inactive)

Structure (SMILES): Cc1ccc(-c2cc(=O)c3cc(C)c(C)c(C(=O)O)c3o2)cc1
- GI50 [1]: > 100 µM (inactive)
- GI50 [2]: > 100 µM (inactive)
- GI50 [3]: > 100 µM (inactive)
- GI50 [4]: > 100 µM (inactive)
- GI50 [6]: > 100 µM (inactive)
- GI50 [52]: 24.3 µM (inactive)
- GI50 [53]: > 100 µM (inactive)
- GI50 [7]: > 100 µM (inactive)
- GI50 [8]: > 100 µM (inactive)
- GI50 [9]: > 100 µM (inactive)
- GI50 [10]: > 100 µM (inactive)
- GI50 [11]: > 100 µM (inactive)
- GI50 [12]: > 100 µM (inactive)
- GI50 [15]: > 100 µM (inactive)
- GI50 [16]: > 100 µM (inactive)
- GI50 [17]: > 100 µM (inactive)
- GI50 [18]: > 100 µM
- GI50 [19]: > 100 µM (inactive)
- GI50 [20]: > 100 µM (inactive)
- GI50 [54]: > 100 µM (inactive)
- GI50 [21]: > 100 µM (inactive)
- GI50 [22]: 29.9 µM (inactive)
- GI50 [55]: > 100 µM (inactive)
- GI50 [23]: > 100 µM (inactive)
- GI50 [24]: > 100 µM (inactive)
- GI50 [56]: > 100 µM (inactive)
- GI50 [25]: > 100 µM (inactive)
- GI50 [57]: > 10 µM (inactive)
- GI50 [26]: > 100 µM (inactive)
- GI50 [27]: > 100 µM (inactive)
- GI50 [28]: > 100 µM (inactive)
- GI50 [29]: > 100 µM (inactive)
- GI50 [30]: > 100 µM (inactive)
- GI50 [31]: > 100 µM (inactive)
- GI50 [32]: > 100 µM (inactive)
- GI50 [34]: > 100 µM (inactive)
- GI50 [35]: > 100 µM (inactive)
- GI50 [36]: > 100 µM (inactive)
- GI50 [58]: > 100 µM (inactive)
- GI50 [37]: > 100 µM (inactive)
- GI50 [38]: > 100 µM (inactive)
- GI50 [39]: > 100 µM (inactive)
- GI50 [41]: > 100 µM (inactive)
- GI50 [42]: > 100 µM (inactive)
- GI50 [43]: > 100 µM (inactive)
- GI50 [44]: > 100 µM (inactive)
- GI50 [45]: > 100 µM (inactive)
- GI50 [46]: > 100 µM (inactive)
- GI50 [47]: > 100 µM (inactive)
- GI50 [48]: > 100 µM (inactive)
- GI50 [49]: > 100 µM (inactive)
- GI50 [50]: 47.9 µM (inactive)
- GI50 [51]: > 100 µM (inactive)

Structure (SMILES): Cc1ccc(S(=O)(=O)C(CC(NC=O)S(=O)(=O)c2ccc(C)cc2)NC=O)cc1 (stereo not drawn)
- GI50 [1]: > 100 µM (inactive)
- GI50 [2]: > 100 µM (inactive)
- GI50 [59]: > 100 µM (inactive)
- GI50 [3]: > 100 µM (inactive)
- GI50 [4]: > 100 µM (inactive)
- GI50 [5]: > 100 µM (inactive)
- GI50 [6]: > 100 µM (inactive)
- GI50 [52]: > 100 µM (inactive)
- GI50 [53]: 62.4 µM (inactive)
- GI50 [7]: > 100 µM (inactive)
- GI50 [8]: > 100 µM (inactive)
- GI50 [9]: > 100 µM (inactive)
- GI50 [10]: > 100 µM (inactive)
- GI50 [11]: > 100 µM (inactive)
- GI50 [12]: > 100 µM (inactive)
- GI50 [13]: > 100 µM (inactive)
- GI50 [14]: > 100 µM (inactive)
- GI50 [15]: > 100 µM (inactive)
- GI50 [16]: > 100 µM (inactive)
- GI50 [17]: > 100 µM (inactive)
- GI50 [18]: > 100 µM
- GI50 [19]: > 100 µM (inactive)
- GI50 [20]: > 100 µM (inactive)
- GI50 [21]: > 100 µM (inactive)
- GI50 [22]: > 100 µM (inactive)
- GI50 [55]: > 100 µM (inactive)
- GI50 [23]: > 100 µM (inactive)
- GI50 [24]: > 100 µM (inactive)
- GI50 [56]: > 100 µM (inactive)
- GI50 [25]: > 100 µM (inactive)
- GI50 [57]: > 100 µM (inactive)
- GI50 [26]: > 100 µM (inactive)
- GI50 [27]: > 100 µM (inactive)
- GI50 [28]: > 100 µM (inactive)
- GI50 [29]: > 100 µM (inactive)
- GI50 [30]: > 100 µM (inactive)
- GI50 [31]: > 100 µM (inactive)
- GI50 [32]: > 100 µM (inactive)
- GI50 [34]: > 100 µM (inactive)
- GI50 [36]: > 100 µM (inactive)
- GI50 [58]: > 100 µM (inactive)
- GI50 [37]: > 100 µM (inactive)
- GI50 [38]: > 100 µM (inactive)
- GI50 [40]: > 100 µM (inactive)
- GI50 [41]: > 100 µM (inactive)
- GI50 [42]: > 100 µM (inactive)
- GI50 [44]: > 100 µM (inactive)
- GI50 [45]: > 100 µM (inactive)
- GI50 [46]: > 100 µM (inactive)
- GI50 [47]: > 100 µM (inactive)
- GI50 [48]: > 100 µM (inactive)
- GI50 [49]: > 100 µM (inactive)
- GI50 [50]: > 100 µM (inactive)
- GI50 [51]: > 100 µM (inactive)
